Data as given in patent US7531506B2, “Process for producing trunkamide a compounds” (Pharma Mar, S.A., priority 2001, dated 2009).
*1 amine or outer side, *2 acyl side, *3 side chain or, on linkers, in order; H or OH if unused. Where a SMILES comes first, the peptide text is derived from it. [ ]: non-standard residue; d: D form. The star is where a group is joined. X1 = O=C([C@@H]1CSC([C@@H](Cc2ccccc2)N[*:1])=N1)[*:2]; X2 = C=CC(C)(C)O[C@H](C)C(N[*:1])C(=O)[*:2]; Allyl(1,1-Me2) = C=CC(C)(C)*

How the values were obtained:
Type in all cases: cell-based
P388 murine lymphoma = assay: Cytotoxicity, P388 cells; conditions: read-out: Cytoxicity IC50 P388
Description: (§1) Cytoxicity of trunkamide A and derivatives IC50 (molar).
(§2) Methodology: after Berjeron et al, Biochem and Bioph Res. Comm., 1984, 121, 3,848854 388=Murine lymphoma. A549=lung carcinoma. . HT-29=human colon carcinoma MEL-28=human melanoma. DU145=human prostate carcinoma.

[1] = tested on: A549 human lung carcinoma; assay: Cytotoxicity, A549 cells; conditions: read-out: Cytoxicity IC50 A549
Description: as §1, §2

[2] = tested on: HT-29 human colon carcinoma; assay: Cytotoxicity, HT29 cells; conditions: HT-29 human colon carcinoma cells; read-out: Cytoxicity IC50 HT29
Description: as §1, §2

MEL-28 human melanoma = assay: Cytotoxicity, MEL28 cells; conditions: MEL-28 human melanoma cells; read-out: Cytoxicity IC50 MEL28
Description: as §1, §2

[3] = tested on: DU145 human prostate carcinoma; assay: Cytotoxicity, DU145 cells; conditions: read-out: Cytoxicity IC50 DU145
Description: as §1, §2

Molecule	IC50 (P388 murine lymphoma)	IC50 [1]	IC50 [2]	IC50 (MEL-28 human melanoma)	IC50 [3]
C=CC(C)(C)OC[C@@H]1NC(=O)C([C@@H](C)OC(C)(C)C=C)NC(=O)[C@@H]2CSC(=N2)[C@@H](Cc2ccccc2)NC(=O)[C@@H]2CCCN2C(=O)[C@H](C)NC(=O)[C@H]([C@@H](C)CC)NC1=O (stereo partly drawn) [Compound 9, Cyclo[D-Phe-Tzn-Thr(rPr)-Ser(rPr)-Ile-Ala-Pro]] (cyclo(AP[X1][X2]S(Allyl(1,1-Me2))I))	1200 nM	1200 nM	1200 nM	12 µM	1200 nM
Cyclo [Compound 10, Cyclo [L-Phe-Tzn-Thr(rPr)-Ser(rPr)-Ile-Ala-Pro]]	1200 nM	1200 nM	1200 nM	1.2 µM	1200 nM
Cyclo [Compound 11, Cyclo [L-Phe-Tzn-Thr (tBu)-Ser(tBu)-Ile-Ala-Pro]]	> 6200 nM	> 6200 nM	> 6200 nM	> 6.2 µM	> 6200 nM
Cyclo [Compound 12, Cyclo [L-Phe-Oxa-Thr(tBu)-Ser(tBu)-Ile-Ala-Pro]]	3100 nM	3100 nM	3100 nM	> 6.1 µM	> 6100 nM
